# Source: a melting point compilation (Tetko et al.; mined from patent text by program, amines drawn as free bases though some values may be those of a salt)
row,SMILES,melting point [°C]
1,CCCCCCNC(=O)[C@@H](NC(=O)OC(C)(C)C)C(C)C,74 to 76
2,C=CCS(=O)(=O)CC=C,63 to 65
3,Cc1ccn(-c2nc(C)c(C(=O)NCc3ccccc3)s2)c(=O)c1,145 to 147
4,O=C(O)CCC(=O)c1ccc(-c2ccc(Cl)cc2)o1,142 to 144
5,CC(C)(C)n1ncc(C(=O)c2ccc(S(C)(=O)=O)c(-c3ccccc3)c2Cl)c1O,262 to 264
6,O=C1Nc2ccc(F)cc2C1CCCCN1CCN(c2ccc(F)cc2)CC1 (stereo not drawn),135 to 137
7,Nc1ccncc1-c1n[nH]c2ccccc12,237 to 239
8,O=C(NCCCCC1CCSS1)NCCCCC1CCSS1 (stereo not drawn),115 to 116
9,Oc1ccc(-c2cc3cc(Br)cc(Br)c3o2)cc1,203 to 205
10,CCN(CC)Cc1cc(O)ccc1O,114
11,O=C1C=C(C(F)F)C(=O)c2ccccc21,74
12,COC(=O)c1ccc2c(c1)S(=O)(=O)c1ccccc1C2=O,145 to 146
13,CCOC(=O)c1ccc(-c2ccc(-c3ccccc3)s2)s1,113 to 115
14,CCOC(=O)N1CCC(n2c(=O)[nH]c3ccc(C)cc32)CC1,222 to 224
15,CC(Cl)(Cl)C(NC(=O)c1ccc(F)cc1)NC(=NC#N)Nc1ccc(Cl)nc1 (stereo not drawn),197 to 198
16,COc1ccc(-c2nc(S(=O)(=O)C(C)C)[nH]c2-c2ccncc2)cc1,262 to 266
17,Cc1cc2c(c3ccc(=O)[nH]c13)OC(CNC(=O)[C@@H]1CCCN1C(=O)OCc1ccccc1)C2 (stereo partly drawn),131 to 132
18,O=C(NOCC(O)CO)c1cc(Cl)c(F)c(F)c1Nc1ccc(I)cc1Cl (stereo not drawn),152 to 154
19,CC1(C)CCc2ccc(C(=O)O)cc2CC1,166 to 171
20,O=C(Nc1ccccc1)Nc1ccc2ccc(-c3cccc(Br)c3)nc2n1,285
21,O=C(NCC(F)(F)F)c1ccccc1C(c1ccc(O)cc1)c1ccc(O)cc1,165 to 166
22,CN1CCC(=C2c3ccccc3CC(O)c3ccccc32)CC1 (stereo not drawn),205 to 206
23,COC(=O)/C=C/[C@H](O)[C@H](Cc1ccccc1)NC(=O)OC(C)(C)C,108 to 109
24,CC1(COc2ccc(CC3SC(=O)NC3=O)cc2)CCC(=O)CC1 (stereo not drawn),134 to 135
25,COc1ccc(-c2cc(=O)n(C3CCCC3)nc2-c2ccc(OC)cc2)cc1,141 to 142
26,CS(=O)(=O)OC[C@@H]1NC(=O)[C@@H]1n1c(-c2ccccc2)c(-c2ccccc2)oc1=O (relative stereo),185 to 188

row,SMILES,melting point [°C]
1,COc1ccnc(CSc2nc3c(OC(F)F)c(OC)c(OC)cc3[nH]2)c1C,177 to 179
2,O=C(NCCO)c1[nH]c2ccc(Cl)cc2c1-c1ccccc1F,178 to 180
3,CC(=O)NCC1CN(c2ccc(N3CCC(=CC#N)C(C)C3)c(F)c2)C(=O)O1 (stereo not drawn),152 to 153
4,CCOC(=O)c1ccc(N2C(=O)CCC2CO)c([N+](=O)[O-])c1 (stereo not drawn),90 to 95
5,COc1ccc(-c2nc3cc(F)ccc3s2)cc1OC(=O)N1CCOCC1,170
6,CCc1oncc1C(=O)Nc1ccc([N+](=O)[O-])cc1,139 to 141
7,O=c1c(-c2nc[nH]n2)coc2ccccc12,160
8,CC1(C)CNc2cc3[nH]c(-c4ccncc4)nc3cc21,147 to 149
9,Clc1ccc(-c2n[nH]cc2Cl)cc1,158
10,O=C1COC(c2ccccc2)(c2ccccc2)CCN1Cc1ccccc1,185 to 186
11,CC(=O)OCC1CN(C(=O)OC(C)(C)C)c2cc(OCc3ccccc3)c3ncccc3c21 (stereo not drawn),172 to 173
12,CN(C)c1ccc(CNc2ccc(Cl)c(Cl)c2)cc1,117
13,CCOC(=O)c1cc2cc(OCCCS(C)(=O)=O)cc(N)c2[nH]1,187 to 188
14,CC(C)(C)OC(=O)NCC(CCn1ccc(=O)[nH]c1=O)COC(c1ccccc1)(c1ccccc1)c1ccccc1 (stereo not drawn),86 to 88
15,COc1cc(C)c(C)cc1NC(=O)N1CCN(c2cccc(O)c2)CC1,177 to 178
16,CC(=O)Nc1c(C(=O)c2ccccc2)[nH]c2ccc(N)cc12,254 to 256
17,Nc1ccn2c(=O)c(C(=O)O)ccc2c1,> 250
18,CS(=O)(=O)c1ccc(C[C@H](CO)NC(=O)OCc2ccccc2)cc1,110 to 112
19,CCOC(=O)NNc1ccc(-c2ccccc2)nn1,158 to 160
20,CCn1ncc2c(NCC3CCCCC3)c3cc(C(=O)O)ccc3nc21,240
21,COc1ccc(-c2nnn(-c3c(Cl)cc(Cl)cc3I)c2N)cc1,72.5 to 73.6
22,COC(=O)c1ccc(N2CCN(Cc3ccccc3)CC2)cc1,105 to 107
23,CNS(=O)(=O)c1ccccc1S(=O)(=O)NC(=O)Nc1nc(C)cc(C)n1,180 to 185
24,CCOC(=O)N1CCC(Nc2nc3ccccc3n2Cc2ccc(F)cc2)CC1,181
25,CC(=O)Nc1cccc2c1SCC=C2,98 to 100
26,O=C(O)Cc1c(-c2ccccc2)nn(-c2cccc(C(F)(F)F)c2)c1-c1ccccc1,166 to 167

row,SMILES,melting point [°C]
1,COc1cc2c(cc1C(F)(F)F)N(C(=O)Nc1cncc(-c3c(F)cccc3F)c1)CC2,217 to 219
2,CCCCNc1cc(CNCc2cccc(O)c2)cc(S(N)(=O)=O)c1Oc1ccccc1,174 to 175
3,CC(NC(=S)N1CCc2c([nH]c3ccccc23)C1c1ccc2c(c1)OCO2)c1ccccc1 (stereo not drawn),117 to 121
4,CCS(=O)(=O)CCC(=O)NCC(=O)N1Cc2ccccc2Oc2ccc(Cl)cc21,108 to 109
5,CCCCCCC(=O)Nc1ccc(-n2nc(C(F)(F)F)cc2C(F)(F)F)cc1,88 to 90
6,CC1Cc2cc3c(cc2C1)CC(C(=N)NO)C3,194 to 195
7,CCc1ccc(N2CCOCC2)c(NC(C)=O)c1,82
8,CN(C)C=C(C(=O)c1ccc(Cl)cc1Cl)n1cncn1,173
9,O=S1(=O)CCN2CCCC(c3ccc(Oc4ccc(Cl)cc4)cc3)C2=N1 (stereo not drawn),215 to 216
10,O=C(N1CCOCC1)N1Cc2c(-c3noc(C4CC4)n3)ncn2-c2ccccc21,198
11,Cc1cccc(NC(=O)NC(Cc2ccccc2)C(=O)N(CC(=O)OC(C)(C)C)c2ccccc2)c1 (racemic),198
12,COC(=O)c1ccc(CN(C(CO)CO)S(=O)(=O)c2ccc(Cl)s2)cc1,134 to 135
13,COc1ccc(C=C2CCCN2Cc2ccccc2)cc1OC,105
14,O=C(C=Cc1ccccn1)c1ccc(OCc2ccccc2)cc1,131 to 134
15,S=c1[nH]nc(Cc2ccccc2Nc2c(Cl)cccc2Cl)o1,168 to 170
16,Clc1cc(Br)c2c(c1)OCCO2,56.5 to 58
17,COC(=O)c1ccc2c(c1)Sc1cc(F)ccc1C=C2,132 to 135
18,COC(=O)c1ccc(CNC(C)=O)cc1S(N)(=O)=O,173 to 175
19,CCS(=O)(=O)Nc1cc(Cc2c[nH]cn2)ccc1C,140 to 152
20,COC1(c2ccc(C(C)(C)C)cc2)CC1C(=O)N[C@H](C)c1ccc(NS(C)(=O)=O)c(C)c1 (stereo partly drawn),231
21,O=C(CN1CCC(Cc2ccccc2)CC1)Nc1ccc2cn[nH]c2c1,165 to 169
22,CCN(CC)CC(O)c1cccc2ccoc12 (stereo not drawn),116
23,Cn1cc(C(=O)N=C=O)c([N+](=O)[O-])n1,55 to 59
24,COc1c(C(=O)C=Cc2ccncc2)cc(Cl)c(N)c1OC,220 to 223
25,Oc1ccc(Oc2cccc(F)c2)cc1,53 to 55
26,Cc1ccc(C#Cc2ccc3c(c2)C(C)(C)CCC3(C)C)cc1,99

row,SMILES,melting point [°C]
1,CC(=O)OC1CSC(Sc2ccc(-c3ccc(C#N)cc3)cc2)C(OC(C)=O)C1OC(C)=O (stereo not drawn),150
2,CC(COc1ccc(CC2SC(=O)NC2=O)cc1)N1CC(COc2cccc(Cl)c2)OC1=O (stereo not drawn),48 to 53
3,CS(=O)c1ccc2c(c1)C=C(C(=O)O)C(C(F)(F)F)O2 (stereo not drawn),148 to 151
4,CC(=O)N[C@@H](Cc1c[nH]c2ccc(O)cc12)C(=O)O,209
5,COC(=O)c1ccc(OCC2CC(=O)N(c3ccc(OCCn4ccnc4)cc3)C2)cc1 (stereo not drawn),135 to 138
6,CCOC(=O)c1cc2c(O)nncc2nc1NC(C)CC (stereo not drawn),184 to 185
7,CC1=NN=C(c2cccc(N)c2)c2cc3c(cc2C1)OCO3,190 to 191
8,Oc1ccc2c(c1)COc1c-2cc2ccc(O)cc2c1-c1cc(F)cc(F)c1,238 to 240
9,COC(=O)C(OC(C(=O)OC)C(=O)OC)C(=O)OC,60 to 61
10,COC(=O)CCn1nc2ccccn2c1=O,95 to 99
11,CCCCCCCCCC(=O)Oc1ccc(N)cc1OC(=O)CCCCCCCCC,44 to 46
12,Nc1ccnc(CCl)n1,125 to 128
13,O=C(O)COc1ccc(SCc2ccc(OCc3cc(Cl)ccc3Cl)cc2)c2c1CCC2,158 to 160
14,COc1cc(CCCN(C)Cc2ccc(OC)c(OC)c2)ccc1NC(=O)c1cccc2c(=O)c3cccc(C)c3[nH]c12,111
15,O=c1c2c([nH]n1-c1ccc(Br)cc1)-c1cc(Cl)ccc1SC2,257 to 260
16,COc1ccc2c(c1)cc(C1(O)C=CC(=O)C=C1)n2S(=O)(=O)c1ccccc1,126 to 128
17,N#Cc1ccc(NCC(F)(F)F)cc1C(F)(F)F,132 to 134
18,COc1cccc(Oc2ncccc2C=O)c1,76 to 78
19,COc1ccc(C(=O)Nc2nc3ccc(N)cc3c(NCc3ccccc3)c2C#N)cc1,228 to 230
20,O=C(O)C(Cc1ccccc1)=NNc1ccc(Cl)c(Cl)c1,166 to 167
21,CCCC[C@H](NC(=O)[C@H](CC(C)C)NC(=O)OCc1ccc(C#N)cc1)C(=O)CSCc1ccco1,83 to 89
22,COc1ccc(-c2cc(-c3cccc(Br)n3)nc(-c3cccc(Br)n3)c2)cc1,205
23,COCn1nnc(NC(=O)C(c2ccccc2)c2ccccc2)n1,127 to 128
24,CCOC(=O)c1cccc(CSCCNC(=O)c2c(Cl)cccc2Cl)c1,43 to 45
25,N#CC1Sc2ccccc2N1C(=O)c1ccc(Cl)cc1 (stereo not drawn),115 to 117
